# Test results published in patent publication US20230027066A1 (Urovant Sciences GmbH, priority 2019, published 2023).
# Tested on: men and women with overactive bladder
# Assay: Phase 3 study of vibegron 75 mg vs placebo and tolterodine ER 4 mg, 12 weeks, efficacy (voiding and urine volume diary)
# Assay type: in vivo, human
# Details: for Urgency 50% responders, Active - Placebo CMH Difference / Patients with at Least 50% Reduction in Urgency Episodes, Adjusted (%) / Patients with at Least 50% Reduction in Urgency Episodes, Adjusted n / Patients with at Least 50% Reduction in Urgency Episodes, Unadjusted (%) / Patients with at Least 50% Reduction in Urgency Episodes, Unadjusted n: Dry population; for Urgency Episodes, Week 12 CFB Mean: descriptive statistics; for Micturitions: LS Mean (95% CI): Table 32, week 12
# Procedure: Enrollment of patients included individuals with OAB Wet (those with UUI, the involuntary loss of urine accompanied by urgency) and OAB Dry (those without UUI). A total of 1,518 patients were randomized across 215 study sites into one of three groups for a 12-week treatment period.
# The study consisted of a Screening Period (1 to 5 weeks), a single-blind Run-in Period (2 weeks), a randomized double-blind Treatment Period (12 weeks), and a Follow-up Period (4 weeks).
# Tolterodine ER 4 mg was the active control. […] Between the Baseline and Week 12 Visits, patients had study assessments at Week 4 and Week 8.
# The Patient Voiding Diary was used by participants (via the eDiary or paper Diary) to record the frequency of daily OAB symptoms including all micturitions, urgency, incontinence, and main reason for incontinence by selecting the respective box for each symptom occurring during the course of a given day and night.
# Urine volume data were collected separately by patients using the Urine Volume component of the eDiary, or the paper Urine Volume Chart. The Urine Volume Chart is a tool used in clinical practice and clinical investigation to assess voiding functions over a 24-hour period and is regarded as a useful instrument in the investigation of patients with voiding symptoms. Urine volume may be collected during any one (1) of the 7 Diary Days prior to the visit, and it should be recorded for ˜24 hours starting from the time the patient gets up for the day and continues until the time the patient gets up for the day on the next day.
# For the purpose of this study, the number of micturitions was defined as the number of times a patient has voided in the toilet as indicated on the Patient Voiding Diary. Average daily micturitions were calculated using the daily entries in the Patient Voiding Diary, which was completed over the 7 days prior to each study visit. Average daily number of micturitions were calculated as the total number of micturitions that occurred on a Complete Diary Day divided by the number of Complete Diary Days in the Patient Voiding Diary. A complete diary day required confirmation by the patient in the Patient Voiding Diary that all voids and leakages had been recorded for the diary day. Baseline was defined as the average number of micturitions occurring during the last evaluable diary prior to the Baseline Visit.
# The number of UUI episodes was defined as the number of times a patient had checked “urge” as the reason for accidental urine leakage. Average daily UUI episodes at each study visit were calculated in the same manner as described above for the micturition endpoint. The UUI endpoint were analyzed using only OAB Wet patients.
# For the analysis of the co-primary endpoints (change from baseline in average number of daily micturitions at Week 12 and change from baseline in average number of daily urge urinary incontinence episodes at Week 12, and placebo adjustment of each), a mixed model for repeated measure (MMRM) with restricted maximum likelihood estimation was used. This model corrects for dropout and accounts for the fact that measurements taken on the same patient over time tend to be correlated by using all available information on patients within the same covariate set to derive an estimate of the treatment effect for a dropout-free population. The analysis model for each efficacy endpoint includes terms for treatment, visit, OAB Type (Wet vs Dry), Sex (Female vs Male), Region (US vs Rest of World), baseline score, and interaction of visit by treatment.
# Primary inferences were drawn from treatment differences for the changes from baseline derived from the MMRM models at Week 12. As part of secondary objectives, the treatment differences for each post baseline visit were also derived using the same MMRM model. […]
# [1] = No prior anticholinergic use during the prior 12 months
# [2] = No prior mirabegron use during the prior 12 months
# [3] = Overall, events of Events/Censored
# [4] = Prior anticholinergic use during the prior 12 months
# [5] = Prior mirabegron use during the prior 12 months
# [6] = Week 2, events of Events/Censored
# [7] = Week 4, events of Events/Censored
compound,measurement,setting,value
"Cc1ccc(O)c([C@H](CCN(C(C)C)C(C)C)c2ccccc2)c1 [Tolterodine ER, tolterodine, reference compound]","Urgency 50% responders, Active - Placebo CMH Difference",baseline to Week 2,2.8
same,"Patients with at Least 50% Reduction in Urgency Episodes, Adjusted (%)",baseline to Week 4,20.6%
same,"Patients with at Least 50% Reduction in Urgency Episodes, Adjusted n",baseline to Week 4,20
same,"Patients with at Least 50% Reduction in Urgency Episodes, Unadjusted (%)",baseline to Week 4,25.5%
same,"Patients with at Least 50% Reduction in Urgency Episodes, Unadjusted n",baseline to Week 4,25
same,"Urgency 50% responders, Active - Placebo CMH Difference",baseline to Week 4,3.5
same,"Patients with at Least 50% Reduction in Urgency Episodes, Adjusted (%)",baseline to Week 8,28.5%
same,"Patients with at Least 50% Reduction in Urgency Episodes, Adjusted n",baseline to Week 8,28
same,"Patients with at Least 50% Reduction in Urgency Episodes, Unadjusted (%)",baseline to Week 8,30.6%
same,"Patients with at Least 50% Reduction in Urgency Episodes, Unadjusted n",baseline to Week 8,30
same,"Urgency 50% responders, Active - Placebo CMH Difference",baseline to Week 8,8.7
same,"Patients with at Least 50% Reduction in Urgency Episodes, Adjusted (%)",baseline to Week 12,29.0%
same,"Patients with at Least 50% Reduction in Urgency Episodes, Adjusted n",baseline to Week 12,28
same,"Patients with at Least 50% Reduction in Urgency Episodes, Unadjusted (%)",baseline to Week 12,32.7%
same,"Patients with at Least 50% Reduction in Urgency Episodes, Unadjusted n",baseline to Week 12,32
same,"Urgency 50% responders, Active - Placebo CMH Difference",baseline to Week 12,5.8
same,"Urgency Episodes, Week 12 CFB Mean",Males with BPH,−3.29
same,"Urgency Episodes, Week 12 CFB Mean",Males without BPH,−2.32
same,"Urgency Episodes, Week 12 CFB Mean",No Prior ACH Use in last 12 Mo.,−2.62
same,"Urgency Episodes, Week 12 CFB Mean",No Prior B3 Agonist Use in last 12 Mo.,−2.56
same,"Micturitions, 12-week change",[1],−1.8
same,"UUI Episodes, 12-week change",[1],−1.9
same,"Micturitions, 12-week change",[2],−1.8
same,"UUI Episodes, 12-week change",[2],−1.8
same,"Overall Time to First 50% Decrease in Urgency Episodes, 25th Percentile",Overall,4.3 weeks
same,"Overall Time to First 50% Decrease in Urgency Episodes, 50th Percentile",Overall,12.6 weeks
same,"Overall Time to First 50% Decrease in Urgency Episodes, Median (95% CI)",Overall,12.6 (12.3 to 12.9) weeks
same,"Overall Time to First 100% Decrease in UUI Episodes, 25th Percentile",Overall,12.1 weeks
same,"Overall Time to First 100% Decrease in UUI Episodes, 75th Percentile",Overall,16.0 weeks
same,"Overall Time to First 100% Decrease in UUI Episodes, Median (95% CI)",Overall,13.1 (12.7 to 16.0) weeks
same,"Urgency Episodes, Week 12 CFB Mean",Overall,−2.57
same,"First 50% Decrease in Urgency Episodes, Events",[3],187/230
same,"First 100% Decrease in UUI Episodes, Events",[3],93/226
same,"Urgency Episodes, Week 12 CFB Mean",Prior ACH Use in last 12 Mo.,−2.23
same,"Urgency Episodes, Week 12 CFB Mean",Prior B3 Agonist Use in last 12 Mo.,−2.72
same,"Micturitions, 12-week change",[4],−1.52
same,"UUI Episodes, 12-week change",[4],−0.98
same,"Micturitions, 12-week change",[5],−1.30
same,"UUI Episodes, 12-week change",[5],−0.65
same,Micturitions: LS Mean (95% CI),Age <65 years,−0.2 (−0.6 to 0.2)
same,Micturitions: LS Mean (95% CI),Age ≥65 years,−0.3 (−0.8 to 0.2)
same,Micturitions: LS Mean (95% CI),Age ≥75 years (posthoc analysis),−0.4 (−1.4 to 0.6)
same,Micturitions: LS Mean (95% CI),Females,−0.3 (−0.7 to 0.0)
same,Micturitions: LS Mean (95% CI),Males,0.1 (−0.7 to 0.9)
same,Micturitions: LS Mean (95% CI),Non-White,−0.1 (−0.8 to 0.6)
same,Micturitions: LS Mean (95% CI),OAB Type: Dry,−0.3 (−1.0 to 0.3)
same,Micturitions: LS Mean (95% CI),OAB Type: Wet,−0.3 (−0.6 to 0.1)
same,Micturitions: LS Mean (95% CI),Overall,−0.3 (−0.6 to 0.1)
same,Micturitions: LS Mean (95% CI),Region: Non-US,0.4 (−0.6 to 1.4)
same,Micturitions: LS Mean (95% CI),Region: US,−0.3 (−0.7 to 0.0)
same,Micturitions: LS Mean (95% CI),White,−0.3 (−0.7 to 0.0)
same,"Average Daily Number of Total Incontinence, Mean (SD)",Week 2,2.75 (2.743)
same,"Average daily number of urgency episodes, Mean (SD)",Week 2,6.30 (3.989)
same,"Average volume voided per micturition, Active - Placebo LS Mean Difference",Week 2,10.2 mL
same,"Change from Baseline in Average Daily Number of Total Incontinence, LS Mean (SE)",Week 2,−1.3 (0.15)
same,"Change from baseline in average daily number of urgency episodes, LS Mean",Week 2,−1.5
same,"Change from baseline in average volume voided per micturition, LS Mean (SE)",Week 2,12.5 (3.20) mL
same,Estimated Incidence of Subjects with 50% Decrease from Baseline (urgency episodes),Week 2,18.0
same,Estimated Incidence of Subjects with 100% Decrease from Baseline (UUI episodes),Week 2,5.6
same,"Total Incontinence, Active - Placebo LS Mean Difference (SE)",Week 2,−0.5 (0.15)
same,"Urgency episodes, Active - Placebo LS Mean Difference",Week 2,−0.6
same,"First 50% Reduction in Urgency Episodes, Events",[6],75/342
same,"First 100% Reduction in UUI Episodes, Events",[6],18/301
same,"Average volume voided per micturition, Week 2 Mean (SD)","Week 2, vibegron 75 mg, tolterodine ER 4 mg",156.7 (71.23) mL
same,"Average Daily Number of Total Incontinence, Mean (SD)",Week 4,2.54 (2.784)
same,"Average daily number of urgency episodes, Mean (SD)",Week 4,6.00 (4.097)
same,"Average volume voided per micturition, Active - Placebo LS Mean Difference",Week 4,8.9 mL
same,"Average volume voided per micturition, Week 4 Mean (SD)",Week 4,160.2 (72.76) mL
same,"Change from Baseline in Average Daily Number of Total Incontinence, LS Mean (SE)",Week 4,−1.6 (0.15)
same,"Change from baseline in average daily number of urgency episodes, LS Mean",Week 4,−1.8
same,"Change from baseline in average volume voided per micturition, LS Mean (SE)",Week 4,13.3 (3.39) mL
same,Estimated Incidence of Subjects with 50% Decrease from Baseline (urgency episodes),Week 4,19.4
same,Estimated Incidence of Subjects with 100% Decrease from Baseline (UUI episodes),Week 4,7.6
same,"Total Incontinence, Active - Placebo LS Mean Difference (SE)",Week 4,−0.5 (0.15)
same,"Urgency episodes, Active - Placebo LS Mean Difference",Week 4,−0.7
same,"First 50% Reduction in Urgency Episodes, Events",[7],81/336
same,"First 100% Reduction in UUI Episodes, Events",[7],24/295
same,"Average Daily Number of Total Incontinence, Mean (SD)",Week 8,2.20 (2.673)
